SMILES strings stand for the structures. The source made the active and inactive calls.

Test [1] concerns the target Intestinal-type alkaline phosphatase (Homo sapiens, UniProt P09923). Briefly: human intestinal alkaline phosphatase activators, dose response, biochemical, luminescence, uHTS hits (AID 463120). The test is classed as functional.
The target of test [2] is T1, Sentrin-specific protease 1 (Homo sapiens, UniProt Q9P0U3).
T1 sequence (Q9P0U3 whole entry): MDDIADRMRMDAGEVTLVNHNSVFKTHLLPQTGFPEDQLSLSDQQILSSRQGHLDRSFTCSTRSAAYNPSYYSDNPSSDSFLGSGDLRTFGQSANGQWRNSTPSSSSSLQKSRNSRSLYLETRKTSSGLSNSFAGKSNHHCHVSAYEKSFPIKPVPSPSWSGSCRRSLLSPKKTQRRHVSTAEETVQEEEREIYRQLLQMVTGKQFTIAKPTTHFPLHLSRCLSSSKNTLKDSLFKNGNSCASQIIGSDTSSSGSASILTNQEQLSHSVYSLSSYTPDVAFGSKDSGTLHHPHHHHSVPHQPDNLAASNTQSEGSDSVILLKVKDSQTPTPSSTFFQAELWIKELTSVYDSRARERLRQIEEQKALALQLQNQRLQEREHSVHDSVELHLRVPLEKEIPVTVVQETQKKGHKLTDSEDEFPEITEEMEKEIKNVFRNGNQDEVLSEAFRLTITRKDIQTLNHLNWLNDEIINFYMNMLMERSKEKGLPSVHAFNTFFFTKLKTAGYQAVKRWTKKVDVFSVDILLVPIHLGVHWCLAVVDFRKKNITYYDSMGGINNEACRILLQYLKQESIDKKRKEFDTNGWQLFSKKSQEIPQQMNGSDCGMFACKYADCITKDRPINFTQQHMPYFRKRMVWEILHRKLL
Briefly: Dose response confirmation of small molecule inhibitors of the catalytic domain of the SUMO protease, SENP1 in a FRET assay. Format: functional. Conditions: read-out: IC50_Mean.

In test [3] the target is T1, Sentrin-specific protease 1. Briefly: SENP1 catalytic domain blockers, concentration series – biochemical, kinetic FRET, dose response (AID 651697). Conditions: read-out: IC50_Mean. The test is classed as functional.
Test [4] is described as follows: Luminescence Cell-Based Dose Retest to Confirm Activators of 5'UTR Stem-Loop Driven Alpha-Synuclein mRNA Translation in H4 Neuroglioblastoma Cells. [Related pubchem assays (depositor defined):AID1813, AID1829]. Format: functional.
Test [5] in a line: ELISA Cell-Based Dose Response to Identify Inhibitors of Alpha-Synuclein Translation in SH-SY5Y Cells. [Related pubchem assays: 1813 (Primary HTS), 1827 (Project Summary)]. The test is classed as functional. For orientation: An ELISA detects its analyte on a solid surface through an enzyme-linked reagent.
Test [6] is described as follows: alpha-synuclein stem-loop luciferase translation blockers – H4 neuroglioma cells, luminescence, confirmation (AID 1988). The test is classed as functional, cell-based.
Test [7] in a line: Western Blot Cell-Based Dose Response to Identify Inhibitors of […] Alpha-Synuclein Translation in H4 Cells. [Related pubchem assays: 1827 (Project Summary), 1813 (Primary HTS)]. A general note: A western blot detects proteins with antibodies after separation by electrophoresis.
Test [8] has as its target T2, Heat shock factor protein 1 (Mus musculus, UniProt P38532).
T2 sequence (P38532 whole entry): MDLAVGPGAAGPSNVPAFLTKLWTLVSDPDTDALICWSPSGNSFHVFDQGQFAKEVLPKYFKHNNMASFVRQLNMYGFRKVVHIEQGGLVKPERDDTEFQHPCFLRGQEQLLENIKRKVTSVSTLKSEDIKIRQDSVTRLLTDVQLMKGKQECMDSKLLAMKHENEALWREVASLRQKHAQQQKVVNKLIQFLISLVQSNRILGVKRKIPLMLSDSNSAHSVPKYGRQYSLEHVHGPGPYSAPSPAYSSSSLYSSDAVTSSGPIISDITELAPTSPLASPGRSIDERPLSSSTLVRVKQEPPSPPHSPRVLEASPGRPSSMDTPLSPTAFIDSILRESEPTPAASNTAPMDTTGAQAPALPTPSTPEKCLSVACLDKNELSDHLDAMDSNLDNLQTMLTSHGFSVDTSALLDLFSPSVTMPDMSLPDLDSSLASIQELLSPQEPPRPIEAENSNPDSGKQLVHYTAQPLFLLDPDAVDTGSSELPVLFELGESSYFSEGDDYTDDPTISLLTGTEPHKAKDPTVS
Briefly: enhancement of HSF1-driven luciferase signal – cell-based, NIH3T3, luminescence, dose retest, confirmation (AID 435004).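 Further: stress induced by proteasome inhibitor MG132 added 30 min after compound; luciferase reporter driven by HSF1 response element in NIH3T3 cells; actives raise luminescence as potentiators of the MG132 stress response.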 Format: functional.

The nature of test [9]: Luminescence Cell-Based Dose HTS Response to Identify Inhibitors of 5'UTR Stem-Loop Driven Prion Protein mRNA Translation in H4-C Neuroglioblastoma Cells. [Related pubchem assays (depositor defined):AID1814, AID1827]. The test is classed as functional.
Test [10] in a line: Luminescence Cell-Based Dose Response HTS to Identify Inhibitors of 5'UTR Stem-Loop Driven Prion Protein mRNA Translation in H4 Neuroglioblastoma Cells. [Related pubchem assays: 1827 (Project Summary), 1813 (Primary HTS)]. Format: functional.
Test [11] can be described thus: luciferase reporter signal suppression in cells – H4 neuroglioma cells, luminescence, dose response (AID 1990). The test is classed as functional, cell-based.
A short description of test [12]: Luminescence Cell-Based Dose Confirmation HTS to Identify Inhibitors of 5'UTR Stem-Loop Driven Alpha-Synuclein mRNA Translation in H4 Neuroglioblastoma Cells. [Related pubchem assays: 1827 (Project Summary), 1813 (Primary HTS)]. Format: functional.
Test [13] can be described thus: Luminescence Cell-Based Dose Response HTS to Identify Inhibitors of Luciferase Translation or Activity in H4-C Neuroglioblastoma Cells. [Related pubchem assays: 1813 (Primary HTS), 1827 (Project Summary)]. The test is classed as functional.
For test [14], the target named is T3, Runt-related transcription factor 1/Core-binding factor subunit beta (Homo sapiens, UniProt Q01196+Q13951). Briefly: Runt domain/CBFb-SMMHC interaction disruptors – biochemical, TR-FRET (AID 1438). The test is classed as protein assay. A general note: Time-resolved FRET reads energy transfer from a long-lived donor to a nearby acceptor.
Test [15] concerns the target T3, Runt-related transcription factor 1/Core-binding factor subunit beta. Description: disruptors of Runt domain/CBFb-SMMHC interaction – biochemical, FRET, Cerulean-Runt, Venus-CBFb-SMMHC, uHTS, […] (AID 1434). The test is classed as protein assay.
Test [16] concerns the target T4, Cannabinoid receptor 1 (Homo sapiens, UniProt P21554). Description: SAR analysis of agonists of the Cannabinoid Receptor 1 using an Image-Based Assay - Set 3. [Related pubchem assays (depositor defined):AID1961, AID1965]. The test is classed as functional.
Test [17] concerns the target G-protein coupled receptor 55 (Homo sapiens, UniProt Q9Y2T6). Description: SAR analysis of selective Agonists of GPR55 using an Image-Based Assay - Set 2. [Related pubchem assays (depositor defined):AID1961, AID1965]. The test is classed as functional.
Test [18] concerns the target T5, G-protein coupled receptor 35 (Homo sapiens, UniProt Q9HC97). Briefly: SAR analysis of Antagonists of the GPR35 Receptor using an Image-Based Assay - Set 4. [Related pubchem assays (depositor defined):[…]]. Format: functional.
Test [19] deals with T4, Cannabinoid receptor 1. Briefly: SAR analysis of antagonists of the Cannabinoid Receptor 1 using an Image-Based Assay - Set 3. [Related pubchem assays (depositor defined):AID1961, AID1965]. The test is classed as functional.
For test [20], the target named is T5, G-protein coupled receptor 35. Description: SAR analysis of Agonists of the GPR35 Receptor using an Image-Based Assay - Set 3. [Related pubchem assays (depositor defined):AID1961, AID1965]. The test is classed as functional.
Test [21] concerns the target T6, Cannabinoid receptor 2 (Homo sapiens, UniProt P34972). Briefly: SAR analysis of agonists of the Cannabinoid Receptor 2 using an Image-Based Assay - Set 2. [Related pubchem assays (depositor defined):AID1961, AID1965]. Format: functional.
Test [22] concerns the target T6, Cannabinoid receptor 2. Description: SAR analysis of antagonists of the Cannabinoid Receptor 2 using an Image-Based Assay - Set 2. [Related pubchem assays (depositor defined):AID1961, AID1965]. Format: functional.
For test [23], the target named is Voltage-dependent T-type calcium channel subunit alpha-1H (Homo sapiens, UniProt O95180). Briefly: human CACNA1H calcium influx blockade – cell-based, synthetic library set 2, HEK293 HH8, Fluo-4, SAR follow-up (AID 493023). Format: functional.
Test [24] deals with T7, Sphingosine 1-phosphate receptor 4 (Homo sapiens, UniProt O95977).
T7 sequence (O95977 whole entry): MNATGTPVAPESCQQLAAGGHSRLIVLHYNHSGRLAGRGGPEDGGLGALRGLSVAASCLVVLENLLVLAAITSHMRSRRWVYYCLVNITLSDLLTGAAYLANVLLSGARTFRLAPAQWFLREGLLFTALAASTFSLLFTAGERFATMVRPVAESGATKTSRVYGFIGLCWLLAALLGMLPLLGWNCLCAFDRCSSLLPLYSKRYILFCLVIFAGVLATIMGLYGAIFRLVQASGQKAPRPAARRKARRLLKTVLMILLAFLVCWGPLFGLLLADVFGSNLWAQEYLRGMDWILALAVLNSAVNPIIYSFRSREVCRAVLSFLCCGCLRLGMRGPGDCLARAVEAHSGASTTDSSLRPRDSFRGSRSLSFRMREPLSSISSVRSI
Description: Late-stage fluorescence dose response cell-based assay to identify agonists of the Sphingosine 1-Phosphate Receptor 4 (S1P4): purchased compounds EC50. [Related pubchem assays (depositor defined):AID1509, AID1523, AID1563, AID1686, AID1701, AID1801]. Format: functional.

T6 sequence (P34972 whole entry): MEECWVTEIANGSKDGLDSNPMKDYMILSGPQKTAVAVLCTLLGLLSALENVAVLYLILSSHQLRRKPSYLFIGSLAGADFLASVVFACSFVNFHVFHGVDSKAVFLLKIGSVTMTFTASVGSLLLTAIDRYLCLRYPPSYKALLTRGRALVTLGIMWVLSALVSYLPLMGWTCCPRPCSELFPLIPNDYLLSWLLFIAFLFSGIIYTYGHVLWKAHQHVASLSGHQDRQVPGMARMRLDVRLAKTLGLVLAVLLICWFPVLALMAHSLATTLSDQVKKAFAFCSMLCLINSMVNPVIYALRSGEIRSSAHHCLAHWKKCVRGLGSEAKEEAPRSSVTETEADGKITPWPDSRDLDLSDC
T3 sequence (Q01196 whole entry, the tested form may be a part): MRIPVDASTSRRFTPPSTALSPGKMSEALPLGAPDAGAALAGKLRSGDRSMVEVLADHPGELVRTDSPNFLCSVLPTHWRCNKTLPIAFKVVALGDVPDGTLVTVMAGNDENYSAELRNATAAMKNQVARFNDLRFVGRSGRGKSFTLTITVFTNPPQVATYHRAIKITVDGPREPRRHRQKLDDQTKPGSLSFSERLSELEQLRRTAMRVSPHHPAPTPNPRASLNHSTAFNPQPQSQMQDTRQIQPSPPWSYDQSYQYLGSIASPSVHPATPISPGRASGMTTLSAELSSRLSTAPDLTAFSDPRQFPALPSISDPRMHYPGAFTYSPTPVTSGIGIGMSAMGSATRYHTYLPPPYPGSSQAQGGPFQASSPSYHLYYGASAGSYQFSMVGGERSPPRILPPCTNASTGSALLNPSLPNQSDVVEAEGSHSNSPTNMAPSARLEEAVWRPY
T3 sequence (Q13951 whole entry, the tested form may be a part): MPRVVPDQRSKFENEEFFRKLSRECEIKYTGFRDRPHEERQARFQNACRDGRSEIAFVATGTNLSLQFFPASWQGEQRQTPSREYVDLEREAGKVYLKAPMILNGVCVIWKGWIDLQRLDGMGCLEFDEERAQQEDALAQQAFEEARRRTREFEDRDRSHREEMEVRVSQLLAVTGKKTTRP
T4 sequence (P21554 whole entry): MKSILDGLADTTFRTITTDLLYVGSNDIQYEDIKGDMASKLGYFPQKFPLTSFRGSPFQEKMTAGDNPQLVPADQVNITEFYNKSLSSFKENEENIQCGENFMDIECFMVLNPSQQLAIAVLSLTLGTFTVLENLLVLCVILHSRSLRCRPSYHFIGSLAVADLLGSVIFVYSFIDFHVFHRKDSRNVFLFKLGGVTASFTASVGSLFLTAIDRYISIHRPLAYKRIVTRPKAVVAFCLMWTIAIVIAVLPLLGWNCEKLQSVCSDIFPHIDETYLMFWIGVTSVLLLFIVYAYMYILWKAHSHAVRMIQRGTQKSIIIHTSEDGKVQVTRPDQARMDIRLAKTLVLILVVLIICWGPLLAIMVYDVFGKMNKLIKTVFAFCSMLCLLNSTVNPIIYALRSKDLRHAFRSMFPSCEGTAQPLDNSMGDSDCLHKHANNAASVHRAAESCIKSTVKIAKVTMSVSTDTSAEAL
T5 sequence (Q9HC97 whole entry): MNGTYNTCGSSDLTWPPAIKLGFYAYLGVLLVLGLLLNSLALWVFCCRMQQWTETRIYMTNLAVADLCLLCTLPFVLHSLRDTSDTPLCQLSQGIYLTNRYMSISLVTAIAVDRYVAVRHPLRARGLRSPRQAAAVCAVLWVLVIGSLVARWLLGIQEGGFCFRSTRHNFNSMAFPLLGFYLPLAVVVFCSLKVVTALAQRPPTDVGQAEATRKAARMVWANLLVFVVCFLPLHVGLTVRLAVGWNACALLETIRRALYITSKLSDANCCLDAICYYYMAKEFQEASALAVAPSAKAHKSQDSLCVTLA
Sequence of Intestinal-type alkaline phosphatase (P09923 whole entry): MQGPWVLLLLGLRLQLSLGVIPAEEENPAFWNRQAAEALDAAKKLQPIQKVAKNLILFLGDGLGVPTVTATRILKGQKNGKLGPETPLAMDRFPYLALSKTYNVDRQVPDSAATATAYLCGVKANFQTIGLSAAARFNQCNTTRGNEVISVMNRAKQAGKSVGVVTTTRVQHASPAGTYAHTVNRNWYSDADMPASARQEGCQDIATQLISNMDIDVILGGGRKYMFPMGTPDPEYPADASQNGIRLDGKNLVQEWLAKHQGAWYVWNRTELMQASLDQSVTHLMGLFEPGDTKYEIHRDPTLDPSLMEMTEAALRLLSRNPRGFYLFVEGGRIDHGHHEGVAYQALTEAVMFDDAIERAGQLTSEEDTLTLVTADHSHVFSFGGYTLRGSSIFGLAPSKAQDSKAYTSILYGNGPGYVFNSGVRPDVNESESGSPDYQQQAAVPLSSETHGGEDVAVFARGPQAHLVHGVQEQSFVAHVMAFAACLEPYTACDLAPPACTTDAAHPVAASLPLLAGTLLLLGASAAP
Sequence of Voltage-dependent T-type calcium channel subunit alpha-1H (O95180 whole entry): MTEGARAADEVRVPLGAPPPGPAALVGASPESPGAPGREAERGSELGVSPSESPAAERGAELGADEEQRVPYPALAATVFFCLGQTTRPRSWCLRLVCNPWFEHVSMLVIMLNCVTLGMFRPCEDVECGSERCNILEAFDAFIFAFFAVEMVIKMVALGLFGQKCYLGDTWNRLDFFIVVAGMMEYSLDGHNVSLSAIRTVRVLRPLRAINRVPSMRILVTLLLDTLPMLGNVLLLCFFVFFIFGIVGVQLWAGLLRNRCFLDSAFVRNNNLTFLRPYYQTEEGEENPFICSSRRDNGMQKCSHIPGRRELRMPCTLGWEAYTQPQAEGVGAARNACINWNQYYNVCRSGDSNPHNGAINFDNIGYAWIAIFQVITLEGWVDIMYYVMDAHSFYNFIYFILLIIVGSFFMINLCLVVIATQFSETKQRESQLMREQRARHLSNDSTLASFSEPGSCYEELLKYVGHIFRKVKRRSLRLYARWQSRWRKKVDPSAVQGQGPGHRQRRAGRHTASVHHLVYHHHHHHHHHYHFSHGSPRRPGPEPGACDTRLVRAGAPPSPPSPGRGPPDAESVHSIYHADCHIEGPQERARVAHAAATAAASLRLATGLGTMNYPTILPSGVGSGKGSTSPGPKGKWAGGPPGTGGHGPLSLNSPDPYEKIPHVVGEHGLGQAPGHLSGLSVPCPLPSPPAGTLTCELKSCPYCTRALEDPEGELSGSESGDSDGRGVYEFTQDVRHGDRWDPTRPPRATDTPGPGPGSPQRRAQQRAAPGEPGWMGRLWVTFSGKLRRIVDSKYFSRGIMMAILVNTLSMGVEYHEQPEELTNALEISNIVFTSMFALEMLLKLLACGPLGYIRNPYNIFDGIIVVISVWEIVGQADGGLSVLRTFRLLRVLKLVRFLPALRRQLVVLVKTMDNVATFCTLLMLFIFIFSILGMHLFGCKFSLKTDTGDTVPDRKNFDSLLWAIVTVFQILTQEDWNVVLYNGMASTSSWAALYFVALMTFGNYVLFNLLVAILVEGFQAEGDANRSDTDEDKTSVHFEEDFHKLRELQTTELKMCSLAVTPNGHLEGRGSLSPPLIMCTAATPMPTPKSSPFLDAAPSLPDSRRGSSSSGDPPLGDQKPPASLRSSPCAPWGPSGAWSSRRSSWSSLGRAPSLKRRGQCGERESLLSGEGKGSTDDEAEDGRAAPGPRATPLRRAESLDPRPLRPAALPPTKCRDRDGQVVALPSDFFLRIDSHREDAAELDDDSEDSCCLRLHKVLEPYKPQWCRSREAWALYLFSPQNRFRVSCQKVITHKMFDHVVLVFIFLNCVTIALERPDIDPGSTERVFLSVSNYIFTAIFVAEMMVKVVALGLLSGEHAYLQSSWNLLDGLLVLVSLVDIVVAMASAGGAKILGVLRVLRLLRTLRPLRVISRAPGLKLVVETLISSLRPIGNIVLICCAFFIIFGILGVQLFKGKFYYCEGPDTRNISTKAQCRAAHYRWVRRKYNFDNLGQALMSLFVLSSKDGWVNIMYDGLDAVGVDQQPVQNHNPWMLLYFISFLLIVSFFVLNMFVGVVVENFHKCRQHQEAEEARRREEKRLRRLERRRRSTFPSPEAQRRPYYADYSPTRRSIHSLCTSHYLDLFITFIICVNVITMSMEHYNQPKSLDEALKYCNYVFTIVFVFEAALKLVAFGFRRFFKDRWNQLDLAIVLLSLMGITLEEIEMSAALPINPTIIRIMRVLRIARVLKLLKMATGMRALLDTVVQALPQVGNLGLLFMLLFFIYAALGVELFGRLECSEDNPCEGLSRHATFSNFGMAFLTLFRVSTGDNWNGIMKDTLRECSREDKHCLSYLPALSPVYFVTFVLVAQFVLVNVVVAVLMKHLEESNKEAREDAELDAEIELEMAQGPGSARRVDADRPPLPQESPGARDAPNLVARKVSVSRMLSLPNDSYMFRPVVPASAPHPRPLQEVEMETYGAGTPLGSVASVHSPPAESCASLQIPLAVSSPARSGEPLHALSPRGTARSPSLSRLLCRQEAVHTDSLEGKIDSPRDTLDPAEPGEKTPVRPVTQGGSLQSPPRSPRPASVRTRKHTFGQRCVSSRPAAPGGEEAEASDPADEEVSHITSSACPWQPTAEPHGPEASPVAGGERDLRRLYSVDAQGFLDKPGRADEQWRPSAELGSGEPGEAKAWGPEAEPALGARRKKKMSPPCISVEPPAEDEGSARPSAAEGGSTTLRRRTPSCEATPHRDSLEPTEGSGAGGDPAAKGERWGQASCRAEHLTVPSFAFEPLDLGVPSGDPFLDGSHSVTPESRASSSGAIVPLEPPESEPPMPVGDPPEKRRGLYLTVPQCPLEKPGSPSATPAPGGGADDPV
Sequence of G-protein coupled receptor 55 (Q9Y2T6 whole entry): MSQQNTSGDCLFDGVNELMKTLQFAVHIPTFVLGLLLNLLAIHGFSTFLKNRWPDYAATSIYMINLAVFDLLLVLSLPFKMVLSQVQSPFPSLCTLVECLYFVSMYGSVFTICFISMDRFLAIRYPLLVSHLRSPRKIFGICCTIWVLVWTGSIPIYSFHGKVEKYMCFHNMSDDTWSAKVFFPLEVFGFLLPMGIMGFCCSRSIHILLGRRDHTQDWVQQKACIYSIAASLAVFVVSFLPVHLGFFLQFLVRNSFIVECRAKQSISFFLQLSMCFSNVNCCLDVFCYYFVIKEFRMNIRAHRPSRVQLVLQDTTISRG

In general, EC50 refers to the midpoint of the concentration-response curve. For `O=C(NNc1nc2c(F)cccc2s1)c1cc(=O)c2ccccc2o1`, in test [1], the concentration giving a half-maximal response (EC50) was 10.3 µM (active). The results for the IC50 in test [2] and in test [3] were 7.06 µM (active) and 6.67 µM (active), respectively.

On to `CN(C)c1nc(N)nc(CSc2nnnn2-c2cccc3ccccc23)n1`, for which the EC50 in test [4] was 1.81 µM (inconclusive); in test [5], < 0.006 µM (active); in [6], 3.5 µM (active); in test [7], < 1 µM (active); in [8], > 260 µM (inactive); in test [9], > 195 µM (inactive). Besides, the concentration for a half-maximal effect (EC50) was > 120 µM (not active) in test [10], > 120 µM (not active) in test [11], 1.81 µM (active) in test [12] and > 195 µM (not active) in test [13].

Turning to `COC(=O)C1=C(CSc2nc3c(cc2C#N)CN(C)CC3)OC(N)=C(C#N)C1c1ccccc1F` (centres undefined), the IC50 is 60.9 µM (inactive) in test [14] and > 100 µM (inactive) in test [15].

Regarding `Cc1ccc(-c2csc(NC(=O)CSc3nnc4cc(C)c5ccccc5n34)n2)cc1`, the EC50 is > 32 µM (inactive) in [16], 11.5 µM (inactive) in test [17], > 32 µM (inactive) in test [20] and > 32 µM (inactive) in [21]. Further, the IC50 in test [18], in [19] and in test [22] was > 32 µM (inactive) in each case.

As to `O=C(N[C@H]1CCCN(Cc2ccccc2)C1)c1cc(Cl)cc(Cl)c1`, in [23], the EC50 is 10 µM (active).

As to `Cc1ccc(OCC(=O)Nc2cccc(Cl)c2)c([N+](=O)[O-])n1`, the EC50 in test [24] is > 50 µM (inactive).

Values taken from ChEMBL document CHEMBL1201862, “PubChem BioAssay data set” (2004).
